According to patent US9963462B2 (priority 2015, dated 2018):

How the values were obtained:
[1] = test system: BH4 production in human peripheral blood mononuclear cells (PBMCs); assay: hPBMC assay, inhibition of BH4 production by LC-MS (anti-CD3/anti-CD28 stimulated); assay type: cell-based; conditions: PBMC, read-out: hPBMC IC50
[2] = target: SNAP-hSPR (sepiapterin reductase, SPR) (Homo sapiens, UniProt P35270); assay: biochemical; assay type: binding; conditions: terbium labelled SNAP-hSPR / SSZ labelled SNAP-EGFP; read-out: hTR-FRET IC50
Sequence of SNAP-hSPR (sepiapterin reductase, SPR) (P35270 whole entry): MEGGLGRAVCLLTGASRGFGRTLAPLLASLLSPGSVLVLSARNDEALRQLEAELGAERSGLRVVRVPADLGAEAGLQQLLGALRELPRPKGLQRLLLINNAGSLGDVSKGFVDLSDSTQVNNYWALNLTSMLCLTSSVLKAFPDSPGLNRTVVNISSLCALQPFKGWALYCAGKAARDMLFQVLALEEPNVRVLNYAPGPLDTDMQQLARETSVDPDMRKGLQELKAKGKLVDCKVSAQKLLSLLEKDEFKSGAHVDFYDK

O=C(c1cn(-c2nn3cccc3c(=O)[nH]2)nn1)N1CCN(C2CC2)CC1 [Q-1221]
IC50 [1]: 37 nM
IC50 [2]: 1 nM

O=C(c1cn(-c2nn3cccc3c(=O)[nH]2)nn1)N1CCC(C2CC2)CC1 [Q-1222]
IC50 [1]: 25 nM
IC50 [2]: 1 nM

O=C(c1cn(-c2nn3cccc3c(=O)[nH]2)nn1)N1CCN(CC(F)(F)F)CC1 [Q-1223]
IC50 [1]: 24 nM
IC50 [2]: 3 nM

O=C(c1cn(-c2nn3cccc3c(=O)[nH]2)nn1)N1CC(N2CCC(F)(F)C2)C1 [Q-1224]
IC50 [1]: 370 nM
IC50 [2]: 9 nM

Cc1c(C(=O)N2CC3CC(C2)N3CC(F)(F)F)nnn1-c1nn2cccc2c(=O)[nH]1 [Q-1225]
IC50 [1]: 29 nM
IC50 [2]: 1 nM

O=C(c1cn(-c2nn3cccc3c(=O)[nH]2)nn1)N1CC2CC(C1)N2CC(F)(F)F [Q-1226]
IC50 [1]: 410 nM
IC50 [2]: 7 nM

Cc1c(C(=O)N2CCC(C(=O)CCC(F)(F)F)CC2)cnn1-c1nn2cccc2c(=O)[nH]1 [Q-1227]
IC50 [1]: 14 nM
IC50 [2]: 1 nM

Cc1c(C(=O)N2CCC(C(CO)C(F)(F)F)CC2)cnn1-c1nn2cccc2c(=O)[nH]1 (stereo not shown) [Q-1228]
IC50 [1]: 17 nM
IC50 [2]: 1 nM

Cc1c(C(=O)N2CCC(n3ccnc3C(F)(F)F)CC2)cnn1-c1nn2cccc2c(=O)[nH]1 [Q-1229]
IC50 [1]: 100 nM
IC50 [2]: 2 nM

Cc1c(C(=O)N2CCN(c3ncc(-c4ccccc4F)s3)CC2)cnn1-c1nn2cccc2c(=O)[nH]1 [Q-1230]
IC50 [1]: 180 nM
IC50 [2]: 10 nM

Cc1c(C(=O)N2CCN(c3ncc(-c4ccnc(F)c4)s3)CC2)cnn1-c1nn2cccc2c(=O)[nH]1 [Q-1231]
IC50 [1]: 62 nM
IC50 [2]: 3 nM

Cc1c(C(=O)N2CCC(n3ccnc3Cl)CC2)cnn1-c1nn2cccc2c(=O)[nH]1 [Q-1232]
IC50 [1]: 56 nM
IC50 [2]: 1 nM

Cc1c(C(=O)N2CCC(n3cccc3Cl)CC2)cnn1-c1nn2cccc2c(=O)[nH]1 [Q-1233]
IC50 [1]: 23 nM
IC50 [2]: 1 nM

Cc1c(C(=O)N2CCC(n3cnc(C(F)(F)F)c3)CC2)cnn1-c1nn2cccc2c(=O)[nH]1 [Q-1234]
IC50 [1]: 27 nM
IC50 [2]: 2 nM

Cc1c(C(=O)N2CCN(c3ncc(-c4ccncc4)s3)CC2)cnn1-c1nn2cccc2c(=O)[nH]1 [Q-1235]
IC50 [1]: 18 nM
IC50 [2]: 5 nM

Cc1c(C(=O)N2CCN(c3ncc(-c4ccnc(Cl)c4)s3)CC2)cnn1-c1nn2cccc2c(=O)[nH]1 [Q-1236]
IC50 [1]: 48 nM
IC50 [2]: 6 nM

O=C(c1cn(-c2nn3cccc3c(=O)[nH]2)nn1)N1CC2(C1)CC(F)(F)C2 [Q-1237]
IC50 [1]: 700 nM
IC50 [2]: 3 nM

Cc1c(C(=O)N2CCC(n3cccc3C(F)(F)F)CC2)cnn1-c1nn2cccc2c(=O)[nH]1 [Q-1238]
IC50 [1]: 79 nM
IC50 [2]: 2 nM

Cc1nn(-c2nn3cccc3c(=O)[nH]2)cc1C(=O)N1CC2(C1)CC(F)(F)C2 [Q-1239]
IC50 [1]: 27 nM
IC50 [2]: 2 nM

Cc1c(C(=O)N2CCN(C3CC3C(F)(F)F)CC2)cnn1-c1nn2cccc2c(=O)[nH]1 (stereo not shown) [Q-1240]
IC50 [1]: 35 nM
IC50 [2]: 1 nM

Cc1nn(-c2nn3cccc3c(=O)[nH]2)cc1C(=O)N1CCN(C2CCC2)CC1 [Q-1241]
IC50 [1]: 20 nM
IC50 [2]: 2 nM

Cc1nn(-c2nn3cccc3c(=O)[nH]2)cc1C(=O)N1CC(N2CCC(F)(F)C2)C1 [Q-1243]
IC50 [1]: 51 nM
IC50 [2]: 20 nM

O=C(c1cn(-c2nn3cccc3c(=O)[nH]2)nn1)N1CCN(C2CCC2)CC1 [Q-1244]
IC50 [1]: 36 nM
IC50 [2]: 1 nM

O=C(c1cnn(-c2nn3cccc3c(=O)[nH]2)c1)N1CCN2CC(F)(F)C[C@H]2C1 [Q-1246]
IC50 [1]: 100 nM
IC50 [2]: 4 nM

O=C(c1cn(-c2nn3cccc3c(=O)[nH]2)nn1)N1CCN(C2CCC2(F)F)CC1 (stereo not shown) [Q-1247]
IC50 [1]: 150 nM
IC50 [2]: 2 nM

Cc1c(C(=O)N2CCN(C3CC3F)CC2)cnn1-c1nn2cccc2c(=O)[nH]1 (stereo not shown) [Q-1249]
IC50 [1]: 46 nM
IC50 [2]: 2 nM

Cc1c(C(=O)N2CCC(n3ccc(C#N)c3)CC2)cnn1-c1nn2cccc2c(=O)[nH]1 [Q-1250]
IC50 [1]: 24 nM
IC50 [2]: 1 nM

Cc1c(C(=O)N2CC(N3CCC(F)(F)C3)C2)cnn1-c1nc2[nH]ccc2c(=O)[nH]1 [Q-1254]
IC50 [1]: 870 nM
IC50 [2]: 100 nM

Cc1c(C(=O)N2CC(N3CCC(F)(F)C3)C2)cnn1-c1nc2cc[nH]c2c(=O)[nH]1 [Q-1255]
IC50 [1]: 580 nM
IC50 [2]: 100 nM

Cc1c(C(=O)N2CCN(CC(F)(F)F)CC2)cnn1-c1nc2[nH]ccc2c(=O)[nH]1 [Q-1256]
IC50 [1]: 330 nM
IC50 [2]: 30 nM

Cc1c(C(=O)N2CC3(C2)CC(F)(F)C3)cnn1-c1nc2cc[nH]c2c(=O)[nH]1 [Q-1259]
IC50 [1]: 360 nM
IC50 [2]: 100 nM

Cc1c(C(=O)N2CCN(CC(F)(F)F)CC2)cnn1-c1nc2cc[nH]c2c(=O)[nH]1 [Q-1260]
IC50 [1]: 81 nM
IC50 [2]: 30 nM

Cc1c(C(=O)N2CC3(C2)CC(F)(F)C3)cnn1-c1nc2[nH]ccc2c(=O)[nH]1 [Q-1263]
IC50 [1]: 370 nM
IC50 [2]: 100 nM

Cc1c(C(=O)N2CCC2c2cncc(F)c2)cnn1-c1nn2cccc2c(=O)[nH]1 (stereo not shown) [Q-1269]
IC50 [1]: 53 nM
IC50 [2]: 5 nM

Cc1c(C(=O)N2CCC(n3cccc3S(=O)(=O)C(F)(F)F)CC2)cnn1-c1nn2cccc2c(=O)[nH]1 [Q-1288]
IC50 [1]: 600 nM
IC50 [2]: 8 nM

Cc1c(C(=O)N2CCC(n3ccc(S(=O)(=O)C(F)(F)F)c3)CC2)cnn1-c1nn2cccc2c(=O)[nH]1 [Q-1289]
IC50 [1]: 70 nM
IC50 [2]: 2 nM

Cc1c(C(=O)N2CC3CC(C2)N3CC(F)(F)F)cnn1-c1nc2cc[nH]c2c(=O)[nH]1 [Q-1291]
IC50 [1]: 2400 nM
IC50 [2]: 200 nM

Cc1c(C(=O)N2CCC2c2ccc(F)cn2)cnn1-c1nn2cccc2c(=O)[nH]1 (stereo not shown) [Q-1301]
IC50 [1]: 820 nM
IC50 [2]: 10 nM

Cc1c(C(=O)N2CC3CC(C2)N3CC(F)(F)F)cnn1-c1nc2[nH]ccc2c(=O)[nH]1 [Q-1305]
IC50 [1]: 1200 nM
IC50 [2]: 100 nM

Cc1c(C(=O)N2CCN(CC(F)(F)F)CC2)cnn1-c1nc2c(c(=O)[nH]1)COC2 [Q-1344]
IC50 [1]: 320 nM
IC50 [2]: 9 nM

Cc1c(C(=O)N2CCN(C3CCCC3(F)F)CC2)cnn1-c1nn2cccc2c(=O)[nH]1 (stereo not shown) [Q-1362]
IC50 [1]: 43 nM
IC50 [2]: 1 nM

Cc1c(C(=O)N2CCN(S(=O)(=O)c3ccccc3)CC2)cnn1-c1nn2cccc2c(=O)[nH]1 [Q-1535]
IC50 [1]: 110 nM
IC50 [2]: 1 nM

Cc1c(C(=O)N2CCN(S(C)(=O)=O)CC2)cnn1-c1nn2cccc2c(=O)[nH]1 [Q-1539]
IC50 [1]: 780 nM
IC50 [2]: 4 nM

Cc1c(C(=O)N2CCN(S(=O)(=O)C(C)C)CC2)cnn1-c1nn2cccc2c(=O)[nH]1 [Q-1558]
IC50 [1]: 92 nM
IC50 [2]: 2 nM

CCS(=O)(=O)N1CCN(C(=O)c2cnn(-c3nn4cccc4c(=O)[nH]3)c2C)CC1 [Q-1581]
IC50 [1]: 170 nM
IC50 [2]: 4 nM

Cc1c(C(=O)N2CCN(S(=O)(=O)Cc3ccccc3)CC2)cnn1-c1nn2cccc2c(=O)[nH]1 [Q-1591]
IC50 [1]: 110 nM
IC50 [2]: 3 nM

Cc1c(C(=O)N2CCN(S(=O)(=O)CCC(F)(F)F)CC2)cnn1-c1nn2cccc2c(=O)[nH]1 [Q-1728]
IC50 [1]: 86 nM
IC50 [2]: 1 nM

Cc1c(C(=O)N2CCN(S(=O)(=O)c3cccc(C#N)c3)CC2)cnn1-c1nn2cccc2c(=O)[nH]1 [Q-1794]
IC50 [1]: 250 nM
IC50 [2]: 2 nM

Cc1c(C(=O)N2CCN(S(=O)(=O)c3ccccc3C(F)(F)F)CC2)cnn1-c1nn2cccc2c(=O)[nH]1 [Q-1796]
IC50 [1]: 260 nM
IC50 [2]: 1 nM

CCCS(=O)(=O)N1CCN(C(=O)c2cnn(-c3nn4cccc4c(=O)[nH]3)c2C)CC1 [Q-1797]
IC50 [1]: 79 nM
IC50 [2]: 1 nM

Cc1c(C(=O)N2CCN(S(=O)(=O)c3ccccc3F)CC2)cnn1-c1nn2cccc2c(=O)[nH]1 [Q-1799]
IC50 [1]: 100 nM
IC50 [2]: 1 nM

Cc1nc(C)c(S(=O)(=O)N2CCN(C(=O)c3cnn(-c4nn5cccc5c(=O)[nH]4)c3C)CC2)s1 [Q-1805]
IC50 [1]: 130 nM
IC50 [2]: 1 nM

Cc1c(C(=O)N2CCN(S(=O)(=O)c3ccc(F)cc3)CC2)cnn1-c1nn2cccc2c(=O)[nH]1 [Q-1807]
IC50 [1]: 110 nM
IC50 [2]: 1 nM

Cc1c(C(=O)N2CCN(S(=O)(=O)C3CCCCC3)CC2)cnn1-c1nn2cccc2c(=O)[nH]1 [Q-1818]
IC50 [1]: 95 nM
IC50 [2]: 1 nM

Cc1c(C(=O)N2CCN(S(=O)(=O)c3ccccc3Cl)CC2)cnn1-c1nn2cccc2c(=O)[nH]1 [Q-1819]
IC50 [1]: 91 nM
IC50 [2]: 1 nM

Cc1cc(C)c(S(=O)(=O)N2CCN(C(=O)c3cnn(-c4nn5cccc5c(=O)[nH]4)c3C)CC2)c(C)c1 [Q-1820]
IC50 [1]: 94 nM
IC50 [2]: 1 nM

Cc1c(C(=O)N2CCN(S(=O)(=O)c3cccs3)CC2)cnn1-c1nn2cccc2c(=O)[nH]1 [Q-1821]
IC50 [1]: 130 nM
IC50 [2]: 1 nM

Cc1c(C(=O)N2CCN(S(=O)(=O)c3cccc(Cl)c3)CC2)cnn1-c1nn2cccc2c(=O)[nH]1 [Q-1822]
IC50 [1]: 120 nM
IC50 [2]: 1 nM

Cc1c(C(=O)N2CCN(S(=O)(=O)c3cccc(F)c3)CC2)cnn1-c1nn2cccc2c(=O)[nH]1 [Q-1823]
IC50 [1]: 110 nM
IC50 [2]: 1 nM

Cc1c(C(=O)N2CCN(S(=O)(=O)c3c(Cl)cccc3Cl)CC2)cnn1-c1nn2cccc2c(=O)[nH]1 [Q-1836]
IC50 [1]: 270 nM
IC50 [2]: 1 nM

Cc1c(C(=O)N2CCN(S(=O)(=O)c3ccc(C#N)cc3)CC2)cnn1-c1nn2cccc2c(=O)[nH]1 [Q-1838]
IC50 [1]: 170 nM
IC50 [2]: 1 nM

Cc1c(C(=O)N2CCN(S(=O)(=O)c3cccc4ccccc34)CC2)cnn1-c1nn2cccc2c(=O)[nH]1 [Q-1841]
IC50 [1]: 87 nM
IC50 [2]: 1 nM

Cc1c(C(=O)N2CCN(S(=O)(=O)c3ccc(Cl)s3)CC2)cnn1-c1nn2cccc2c(=O)[nH]1 [Q-1842]
IC50 [1]: 150 nM
IC50 [2]: 1 nM

Cc1c(C(=O)N2CCN(S(=O)(=O)N(C)C)CC2)cnn1-c1nn2cccc2c(=O)[nH]1 [Q-1846]
IC50 [1]: 170 nM
IC50 [2]: 1 nM

Cc1c(C(=O)N2CCN(S(=O)(=O)c3ccccc3C#N)CC2)cnn1-c1nn2cccc2c(=O)[nH]1 [Q-1847]
IC50 [1]: 64 nM
IC50 [2]: 1 nM
